One compound from paper PMC7016805, “RK-33 Is a Broad-Spectrum Antiviral Agent That Targets DEAD-Box RNA Helicase DDX3X” (Cells, 2020) can be followed below.

The target of this experiment is T1, DEAD-box helicase 3 X-linked (DDX3X) (Homo sapiens, UniProt O00571).
T1 construct: residues 1–580, N-terminal 6His tag
Put plainly: ITC (one-site model); supported by multi-wavelength AUC, ATPase assay (IC50 […]) and RNA unwinding assay (IC50 […]). The format is binding.

pKd: −log10 of the molar value.

T1 sequence (O00571 1-580): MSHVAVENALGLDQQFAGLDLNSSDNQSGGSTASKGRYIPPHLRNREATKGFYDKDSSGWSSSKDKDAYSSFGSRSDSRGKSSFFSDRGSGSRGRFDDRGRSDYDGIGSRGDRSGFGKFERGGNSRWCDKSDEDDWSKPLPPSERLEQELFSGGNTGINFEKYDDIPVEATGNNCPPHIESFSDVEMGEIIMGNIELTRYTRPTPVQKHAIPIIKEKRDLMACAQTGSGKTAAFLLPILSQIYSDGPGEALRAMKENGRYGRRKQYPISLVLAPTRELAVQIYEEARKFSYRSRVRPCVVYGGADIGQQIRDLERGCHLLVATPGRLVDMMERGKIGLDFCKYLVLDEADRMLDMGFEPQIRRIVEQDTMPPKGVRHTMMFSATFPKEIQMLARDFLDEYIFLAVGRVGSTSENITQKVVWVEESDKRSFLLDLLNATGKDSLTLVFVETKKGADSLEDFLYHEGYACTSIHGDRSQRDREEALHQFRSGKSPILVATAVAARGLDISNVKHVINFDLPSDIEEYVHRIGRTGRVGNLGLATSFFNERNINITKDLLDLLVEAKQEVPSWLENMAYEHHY

As for `COc1ccc(Cn2cnc3c4ncn(Cc5ccc(OC)cc5)c4nc(=O)nc32)cc1` [RK-33], the pKd (commonly the negative decadic logarithm of the Kd, by convention in mol/L) was 4.48.
